Earlier results in patent publication US9655905B2, “Treatment of sickle cell disease” (KING ABDULLAH UNIVERSITY OF SCIENCE AND TECHNOLOGY, priority 2011, dated 2017).

Assays:
[1] = test system: (G) gamma-globin promoter
ICAM-1 = conditions: for Effect on ICAM-1: Table 6, adhesion, up in SCD
IL-10 = conditions: for Effect on IL-10: Table 6, anti-inflammatory; for levels of anti-inflammatory mediator IL-10: cited literature
[2] = test system: leukocyte-endothelial adhesion; conditions: colonic UR injury (Santen, et al 2010)
SELP = conditions: for Effect on SELP: Table 6, adhesion, up in SCD
NO = conditions: for Effect on NO: Table 6, vasodilator, down in SCD
FN1 = conditions: for Effect on FN1: Table 6, coagulatory, up in SCD
cGMP = conditions: Dai, et al 2011
IL-6 = conditions: for Effect on IL-6: Table 6, chemokine/inflammatory, up in SCD
eNOS = conditions: for Effect on eNOS: Table 6, inhibitor of endothelial cell activation, down in SCD
IL-1β = conditions: for Effect on IL-1β: Table 6, cytokine/inflammatory, up in SCD
SELE = conditions: for Effect on SELE: Table 6, adhesion, up in SCD
ET-1 = conditions: for Effect on ET-1: Table 6, vasoconstrictor, up in SCD; for levels of vasoconstrictor ET-1: cited literature
NFkB = conditions: for Effect on NFkB: Table 6, activator of endothelial cells, up in SCD
TNFα = conditions: for Effect on TNFα: Table 6, cytokine/inflammatory, up in SCD; for levels of TNF-α: cited literature
ET-3 = test system: ET-3; design: key to Effect on ET-3: increases protein levels; decrease: reduces protein levels; exert no effect on protein levels; not known: has not been experimentally determined
CD36 = test system: CD36; design: key to Effect on CD36: increases protein levels; decrease: reduces protein levels; exert no effect on protein levels; not known: has not been experimentally determined
GM-CSF = test system: GM-CSF; design: key to Effect on GM-CSF: increases protein levels; decrease: reduces protein levels; exert no effect on protein levels; not known: has not been experimentally determined
VCAM-1 = test system: VCAM-1; design: key to Effect on VCAM-1: increases protein levels; decrease: reduces protein levels; exert no effect on protein levels; not known: has not been experimentally determined
IL-3 = test system: IL-3; design: key: increases protein levels; decrease: reduces protein levels; exert no effect on protein levels; not known: has not been experimentally determined; conditions: Table 6; inflammatory, up in SCD
fetal hemoglobin (HbF) = conditions: via NO-cGMP signaling pathway (Cokic, et al 2003)
VLA-4 = test system: VLA-4; design: key to Effect on VLA-4: increases protein levels; decrease: reduces protein levels; exert no effect on protein levels; not known: has not been experimentally determined
IL-8 = test system: IL-8; design: key to Effect on IL-8: increases protein levels; decrease: reduces protein levels; exert no effect on protein levels; not known: has not been experimentally determined
[3] = test system: erythrocyte-endothelial adhesion; conditions: HU therapy (Gambero, et al 2007)
[4] = colonic UR injury (Santen, et al 2010)
[5] = Table 6, activator of endothelial cells, up in SCD
[6] = HU in SCD, endothelial adhesion molecule
[7] = on the surface of erythrocytes, HU therapy

C=C1CC[C@H]2C(C)(C)CCC[C@]2(C)[C@H]1C/C=C1/C(=O)OC[C@@H]1O [Isocoronarin D]
little to no: toxicity associated with HbF induction (K562 reporter cell line)
induces: production of HbF [1]
75-80%: cell viability (K562 reporter cell line)
highest: EGFP inducing potency or HbF production ([1]; rank among seven diterpenes (Chokchaisiri, et al 2010))

O=S(=O)(c1cccc2c(O)nccc12)N1CCCNCC1 [Hydroxyfasudil, 5-(1,4-diazepane-1-sulfonyl)isoquinolin-1-ol]
increase: Effect on IL-10 (IL-10) | levels of anti-inflammatory mediator IL-10 (IL-10) | Effect on NO (NO) | Effect on eNOS (eNOS)
increased: levels of NO (NO; Dai, et al 2011) | levels of cGMP (cGMP) | levels of eNOS (eNOS; Dai, et al 2011)
suppress: levels of vasoconstrictor ET-1 (ET-1) | injury-induced generation of ROS (ROS; UR injury (Shiotani, et al 2004))
diminishing: leukocyte-endothelial adhesion [2]
decrease: Effect on ICAM-1 (ICAM-1) | Effect on SELP (SELP) | Effect on FN1 (FN1) | Effect on HIF-1 (HIF-1; [5]) | Effect on IL-6 (IL-6) | Effect on TF (TF; [5]) | IL-1β (IL-1β; He, et al 2008) | Effect on IL-1β (IL-1β) | Effect on SELE (SELE) | Effect on ET-1 (ET-1) | Effect on ROS (ROS; Table 6, IR injury-related molecule, up in SCD) | Effect on NFkB (NFkB) | Effect on TNFα (TNFα) | levels of TNF-α (TNFα)
reduce: ICAM-1 (ICAM-1; [4]) | ICAM-1 expression (ICAM-1; diabetes-induced microvascular damage (Arita, et al 2009)) | SELP (SELP; [4]) | HIF-1α (HIF-1; Takata, et al 2008) | IL-6 levels (IL-6; after hypoxia/reoxygenation injury in brain tissue (Ding, et al 2010)) | TF (TF; Satoh, et al 2010) | SELE (SELE; [4]) | NFκB (NFkB; He, et al 2008)

NC(=O)NO [HU, Hydroxyurea]
increased: NO bioavailability (NO; HU treatment of SCD (Conran, et al 2004))
increasing: production of fetal hemoglobin (HbF)-containing erythrocytes (fetal hemoglobin (HbF))
reducing: gene and protein expression of CD36 (CD36; [7]) | gene and protein expression of VLA-4 (VLA-4; [7])
reduce: erythrocyte-endothelial adhesion [3]
decrease: Effect on ICAM-1 (ICAM-1) | Effect on SELP (SELP) | Effect on ET-3 (ET-3; Table 6, vasoconstrictor, up in SCD) | Effect on CD36 (CD36; Table 6, adhesion, up in SCD) | Effect on GM-CSF (GM-CSF; Table 6, inflammatory, up in SCD) | Effect on SELE (SELE) | Effect on VCAM-1 (VCAM-1; Table 6, adhesion, up in SCD) | Effect on ET-1 (ET-1) | Effect on VLA-4 (VLA-4; Table 6, adhesion, up in SCD) | Effect on NFkB (NFkB) | Effect on TNFα (TNFα)
increases: expression of IL-6 (IL-6; HU (Laurance, et al 2010)) | expression of IL-8 (IL-8; HU (Laurance, et al 2010))
no demonstrable effects: levels of the pro-coagulatory molecule fibronectin (FN1; HU (Saleh, et al 1999))
increase: Effect on IL-10 (IL-10) | levels of anti-inflammatory mediator IL-10 (IL-10) | Effect on NO (NO) | Effect on IL-6 (IL-6) | Effect on eNOS (eNOS) | Effect on IL-1β (IL-1β) | Effect on IL-3 (IL-3) | Effect on IL-8 (IL-8; Table 6, chemokine/inflammatory, up in SCD)
decreasing: levels of sICAM-1 (ICAM-1; [6]) | levels of sSELP (SELP; [6]) | levels of vasoconstrictor ET-3 (ET-3; HU in SCD (Makis, et al 2004)) | levels of sSELE (SELE; [6]) | levels of sVCAM-1 (VCAM-1; [6]) | levels of vasoconstrictor ET-1 (ET-1)
decreased: levels of GM-CSF (GM-CSF; HU therapy (Conran, et al 2007)) | levels of TNF-α (TNFα)
no effect: Effect on FN1 (FN1) | levels of IL-8 (IL-8; HU therapy (Lanaro, et al 2009))
